Where a name gives a salt, the structure may show the parent alone. Read-outs that look alike come from different tables or passages of the source.
How the values were obtained:
[1] = test system: MCF7 human breast carcinoma; assay: MTT cytotoxicity assay, MCF7; format: cell-based; settings: read-out: Drug Ic50
Protocol: (§1) Cytotoxicity experiments on AHVB were performed as direct comparisons with vincristine and Navelbine™ in order to assess its inherent antineoplastic profile against a variety of tumor cell types relative to other relevant vinca alkaloids. The cytotoxicity of AHVB was investigated in vitro against a panel of tumor cell lines of varying lineage in order to determine the specificity of its antitumor activity with respect to cell type.
(§2) Standard dose response cytotoxicity assays (R. Mosmass, J. Immunol. Meth., 65:55-64, 1983) were utilized to determine the IC50 (drug concentration required to induce 50% inhibition of tumor cell growth) for vincristine, Navelbine™ and AHVB. The indicated cell lines were obtained from either the ATCC or NCI tumor repository and were cultured in tissue culture media by standard techniques well known to those skilled in the art, prior to dilution to a defined cell concentration required for the studies in 96 well plates.
(§3) A wide range of drug concentrations were exposed to tumor cells growing at log phase in 96-well microtitre plates. Cell concentrations depended on the cell line as well as the length of time to be cultured. […] MCF7 cells were plated at a concentration of 7,000 and 1,500 cells per well for studies lasting 3 and 7 days, respectively. H460 cells were plated at a concentration of 2,500 and 1,000 cells per well for studies lasting 3 and 7 days, respectively. K562 cells were plated at a concentration of 1,500 and 10,000 cells per well for studies lasting 1 and 3 days, respectively. LS180 cells were plated at a concentration of 5,000 and 20,00 cells per well for studies lasting 3 and 7 days, respectively.
(§4) Subsequently the plates were incubated for the indicated time period. At specified times, cells were washed and subsequently exposed to the dye inclusion marker MTT (3-(4,5-dimethylthiazol-2-yl)-2,5-diphenyl tetrazolium), which accumulated into viable cells. MTT was added to the cells at a final concentration of 50 μg per well. After a 4 hour incubation, the cells were washed free of media and unreacted MTT, prior to addition of DMSO which was required to solubilize the insoluble formazan precipitate that formed in viable cells. After the sample was mixed through repeated pipetting, the coloured product was measured using a plate reader operating at 570 nm. The absorbance values obtained for cells cultured in the absence of drug was assumed to represent 100% viability.

[2] = test system: H460 human non-small cell lung carcinoma; assay: MTT cytotoxicity assay, H460; format: cell-based; settings: read-out: Drug Ic50
Protocol: as §1, §2, §3, §4

[3] = test system: K562 human erythroleukaemia; assay: MTT cytotoxicity assay, K562; format: cell-based; settings: read-out: Drug Ic50
Protocol: as §1, §2, §3, §4

[4] = test system: LS180 human colon carcinoma; assay: MTT cytotoxicity assay, LS180; format: cell-based; settings: read-out: Drug Ic50
Protocol: as §1, §2, §3, §4

[5] = Range-finding acute (14 day) single dose toxicity in healthy male Nb rats; format: in vivo; settings: single intraperitoneal injection; for subacutely toxic dosage (highest dose which allowed survival of all animals in a group): 14 day
Protocol: Range-finding acute (14 day), single dose toxicity studies were performed in healthy male Nb rats in order to determine the maximum tolerated dose of vincristine sulfate, Navelbine T and AHVB when administered as a single, intraperitoneal injection in these rodents (see Table 2).
To this end, healthy non-tumor bearing male Nb rats (weight range 333-399 grams) were divided in groups of 3 animals. Each group was used to test one drug at one dosage. The volumes within which the drugs were administered depended on the concentration of the drug solution (in saline) and the weight of the animals, and ranged from 0.1-1.0 ml. Saline was used as a control. The highest dose of each drug which allowed survival of all animals in a group (3 out of 3) was taken as the subacutely toxic dosage for the drug, i.e. 0.7 mg/kg for vincristine, 2.0 mg/kg for Navelbine™ and 3.0 mg/kg for AHVB.
The health of the animals was assessed by daily weight measurements in addition to behavioural indications of stress. Animals continued to be monitored throughout the complete 14 day study period. Animals were euthanized in the event of signs of severe stress or weight loss in excess of 20%. All animals were necropsied at the end of the study period or at the time of premature euthanasia.

[6] = test system: Nb2-U17 lymphoma transplants; assay: Rat U17 lymphoma model (Nb2-U17 tumor transplants); format: in vivo, Nb rats; settings: for anti-tumor potency compared: 50% of individual maximum tolerated doses, FIG. 3
Source text: The U17 cell line was originally derived from a transplantable malignant lymphoma that arose spontaneously in male Noble rats (British Columbia Cancer Research Centre Joint Animal Breeding Facility with parents obtained from the National Institutes of Health, Bethesda, Md.). The cell line is prolactin dependent and can readily be cultured in vitro. U17 derived solid tumors are generated by subcutaneous injection (via the trocar method) of a small (2 mm^2) piece of tumor tissue obtained from male Noble rat. Tumor tissue used for the implants arose two weeks after injection of 5×10^6 U17 cells (from culture) subcutaneously in the nape of the neck. For assessing the anti-tumor activity of AHVB, tumor bearing animals (2-4 gm tumors) were given a single treatment of drug and tumor size was measured as a function of time following treatment. The anti-tumor activity was assessed at a series of different doses in order to determine the maximum therapeutic dose of AHVB. Comparative studies between vincristine, vinblastine and AHVB were performed. For these studies anti-tumor activity was determined at the maximum therapeutic dose of each drug.
Cultures of the non-metastatic, pre-T Nb2 lymphoma line originally developed at The University of British Columbia and designated Nb2-U17 (Anticancer Research 14:2485-2492, 1994), and are available from the British Columbia Cancer Research Centre. Cells from exponentially growing Nb2-U17 suspension cultures were injected subcutaneously into methoxyflurane-anaesthetised, mature male Nb rats (5 rats; 310-380 grams; 5×10^6 cells/rat in 1 ml of culture medium) at the nape of the neck using a 1.5″ 20-gauge needle. […]
The oncolytic effects of each of the three drugs were assessed at a subacutely toxic dose, determined for each drug in preliminary studies using non-tumor-bearing, mature male Nb rats, i.e. 3.0, 2.0 and 0.7 mg/kg for AHVB, Navelbine™ and vincristine, respectively as illustrated in FIG. 2. In addition, each drug was assessed at 50% and 25% of its subacutely toxic dose. […]

[7] = test system: P388 lymphocytic leukaemia; assay: MTT cytotoxicity assay, P388; settings: for IC50: read-out: Drug Ic50
Protocol: Standard dose response cytotoxicity assays (R. Mosmass, J. Immunol. Meth., 65:55-64, 1983) were utilized to determine the IC50 (drug concentration required to induce 50% inhibition of tumor cell growth) for vincristine, Navelbine™ and AHVB.
A wide range of drug concentrations were exposed to tumor cells growing at log phase in 96-well microtitre plates. Cell concentrations depended on the cell line as well as the length of time to be cultured. Typically, P388 cells were plated at a concentration of 30,000, 2,000 and 750 cells per well for studies lasting 1, 3 and 7 days, respectively. MCF7 cells were plated at a concentration of 7,000 and 1,500 cells per well for studies lasting 3 and 7 days, respectively. H460 cells were plated at a concentration of 2,500 and 1,000 cells per well for studies lasting 3 and 7 days, respectively. K562 cells were plated at a concentration of 1,500 and 10,000 cells per well for studies lasting 1 and 3 days, respectively. LS180 cells were plated at a concentration of 5,000 and 20,00 cells per well for studies lasting 3 and 7 days, respectively. After plating all cell lines were incubated (CO2 incubator at 37° C., 5% CO2) for 24 hours prior to addition of the cytotoxic agent (See Table 1).
as §4
A cytotoxicity curve was generated to estimate the IC50 of vincristine, Navelbine™ and AHVB in the murine P388 cell line (see FIG. 5). In this study, P388 cells derived from an ascitic tumor grown in BDF1 were first separated from red cells employing Ficoll-Paque. Isolated white cells were washed twice then placed in serum containing tissue culture media (1×10^5 cells per ml of RPMI 1640 supplemented with L-glutamine, penicillin, streptomycin and 10% fetal bovine serum) and cultured for 2 hours. All non-adherent cells were collected and that cell population was defined as P388 cells and used for cytotoxicity assays 24 hours later.

[8] = Homo sapiens, 72 h, MCF7, exposure time 3 days
[9] = Homo sapiens, 168 h, MCF7, exposure time 7 days
[10] = Homo sapiens, NCI-H460, 72 h, H460, exposure time 3 days
[11] = Homo sapiens, NCI-H460, 168 h, H460, exposure time 7 days
[12] = Homo sapiens, 24 h, K562, exposure time 1 day
[13] = Homo sapiens, 72 h, K562, exposure time 3 days
[14] = Homo sapiens, 72 h, LS180, exposure time 3 days
[15] = Homo sapiens, 168 h, LS180, exposure time 7 days

Row | SMILES | Mortality (surviving rats/injected rats) ([5]; 10 mg/kg) | subacutely toxic dosage (highest dose which allowed survival of all animals in a group) [5] [mg/kg] | anti-tumor potency compared [6] | IC50 [1, 8] [nM] | IC50 [1, 9] [nM] | IC50 [2, 10] [nM] | IC50 [2, 11] [nM] | IC50 [3, 12] [nM] | IC50 [3, 13] [nM] | IC50 [4, 14] [nM] | IC50 [4, 15] [nM] | IC50 ([7]; Mus musculus, P388, 24 h) [nM] | IC50 ([7]; Mus musculus, P388, 72 h) [nM] | IC50 ([7]; Mus musculus, P388, 168 h) [nM] | other results
1 | CCC1=C[C@H]2CN(CCc3c([nH]c4ccccc34)[C@@](C(=O)OC)(c3cc4c(cc3OC)N(C)[C@H]3[C@@](O)(C(=O)OC)[C@H](OC(C)=O)[C@]5(CC)C=CCN6CC[C@]43[C@@H]65)C2)C1 [AHVB, 3′,4′-anhydrovinblastine] | 0 surviving rats/injected rats | 3.0 | less potent than vincristine | – | – | – | – | – | – | – | – | – | – | – | IC50 ([1]; MCF7, exposure time 3 days): > 2500 nM; IC50 ([1]; MCF7, exposure time 7 days): 31.3 ± 12.4 nM; IC50 ([2]; H460, exposure time 3 days): 10 nM; IC50 ([2]; H460, exposure time 7 days): 5 nM; IC50 ([3]; K562, exposure time 1 day): > 50 nM; IC50 ([3]; K562, exposure time 3 days): 18.8 ± 8.8 nM; IC50 ([4]; LS180, exposure time 3 days): > 50 nM; IC50 ([4]; LS180, exposure time 7 days): 17.5 nM; Mortality (surviving rats/injected rats) ([5]; 4.4 mg/kg): 0 surviving rats/injected rats; fold less active on per molar basis than vincristine and Navelbine ([7]; in vitro tests, Table I and FIG. 5): 10 to 15 fold; IC50 ([7]; P388, exposure time 1 day): 140 ± 53 nM; IC50 ([7]; P388, exposure time 3 days): 15 ± 8.7 nM; IC50 ([7]; P388, exposure time 7 days): 20 nM
2 | CC[C@]1(O)C[C@H]2CN(CCc3c([nH]c4ccccc34)[C@@](C(=O)OC)(c3cc4c(cc3OC)N(C=O)[C@H]3[C@@](O)(C(=O)OC)[C@H](OC(C)=O)[C@]5(CC)C=CCN6CC[C@]43[C@@H]65)C2)C1 [Vincristine, Sulfate of 22-oxovincaleukoblastine] | – | 0.7 | – | > 2500 | 2.6 ± 1.6 | 3.5 | 2.5 | > 50 | 1.5 ± 0.4 | > 50 | 1.5 | 11 ± 3.6 | 1 ± 0.3 | 2 | Mortality (surviving rats/injected rats) ([5]; 1 mg/kg): 0 surviving rats/injected rats; recurrence of tumors ([6]; single intraperitoneal subacutely toxic dose, FIG. 2): not observed
3 | CCC1=C[C@@H]2CN(C1)Cc1c([nH]c3ccccc13)[C@@](C(=O)OC)(c1cc3c(cc1OC)N(C)[C@H]1[C@@](O)(C(=O)OC)[C@H](OC(C)=O)[C@]4(CC)C=CCN5CC[C@]31[C@@H]54)C2 [Navelbine, 3′,4′-didehydro-4′-deoxy-C′-norvincaleukoblastine-di-L-tartrate] | 0 surviving rats/injected rats | 2.0 | less potent than AHVB | > 2500 | 2.6 ± 1.6 | 0.3 | > 0.5 | > 50 | 2.5 ± 2.2 | > 50 | 0.5 | 20 | 0.7 ± 0.3 | 2.5 | Mortality (surviving rats/injected rats) ([5]; 5 mg/kg): 0 surviving rats/injected rats

— US20030162803A1, “Anhydrovinblastine for the treatment of cancer” (priority 1997, published 2003)
